In ChEMBL document CHEMBL1128819, “Chiral spirocyclic benzopyran potassium channel openers: Evidence for the active conformation of levcromakalim” (Bioorg Med Chem Lett, 1995):

Key:
Rattus norvegicus = experiment: Effective dose required for lowering of blood pressure, when administered intravenously to CUP-anesthetized rats; format: functional; settings: iv
[1] = In vitro potassium channel opening activity in A10 (smooth muscle) cells; format: functional, cell-based, Rattus norvegicus
[2] = In vitro potassium channel opening activity in A10 (smooth muscle) cells; Inactive; format: functional, cell-based, Rattus norvegicus

Q: What does the source list for `CCCNC1=NC(=O)[C@@]2(CC(C)(C)Oc3ccc(Br)cc32)N1`?
A: ED30 (Rattus norvegicus): 2.5 µg/kg; EC50 [1]: 4 nM

Q: With `CCCNC1=NC(=O)[C@]2(CC(C)(C)Oc3ccc(Br)cc32)N1` as the compound, how does the EC50 [2] read?
A: Not Active
